Laboratory results from the supplement of paper PMC9386025.

Key:
Test in all cases: drug sensitivity score (DSS) (DSS (dimensionless)); higher = more sensitive (stronger drug response)
FIMM-PDC1 = patient-derived ovarian cancer cells; conditions: genetic perturbation: none (patient-derived cell culture)
How it was run: (§1)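 Ovarian cancer cell lines, after at least three days of shRNA induction with 100 ng/ml doxycycline, and patient-derived cultures were plated at 1 000 – 1 500 cells per well into 384-well plates pre-loaded with drugs at five concentrations spanning a 10,000-fold range. Plates were then kept for three days at 37 °C and 5.0 % CO2. Viability was measured as CellTiter-Glo luminescence on a PHERAstar FS, and each drug's dose-response curve was reduced to a drug sensitivity score computed by a previously described method.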

FIMM-PDC3 = patient-derived ovarian cancer cells; conditions: genetic perturbation: none (patient-derived cell culture)
How it was run: as §1

FIMM-PDC4 = patient-derived ovarian cancer cells; conditions: genetic perturbation: none (patient-derived cell culture)
How it was run: as §1

FIMM-PDC5 = patient-derived ovarian cancer cells; conditions: genetic perturbation: none (patient-derived cell culture)
How it was run: as §1

FIMM-PDC6 = patient-derived ovarian cancer cells; conditions: genetic perturbation: none (patient-derived cell culture)
How it was run: as §1

FIMM-PDC7 = patient-derived ovarian cancer cells; conditions: genetic perturbation: none (patient-derived cell culture)
How it was run: as §1

JHOS2 = tested on: JHOS2
How it was run: as §1

Kuramochi = tested on: Kuramochi
How it was run: as §1

OVSAHO = tested on: OVSAHO
How it was run: as §1

[1] = genetic perturbation: DOX-induced PTK7 shRNA knockdown
[2] = genetic perturbation: DOX-induced control shRNA

| Structure (SMILES) | drug sensitivity score (FIMM-PDC1) | drug sensitivity score (FIMM-PDC3) | drug sensitivity score (FIMM-PDC4) | drug sensitivity score (FIMM-PDC5) | drug sensitivity score (FIMM-PDC6) | drug sensitivity score (FIMM-PDC7) | drug sensitivity score (JHOS2; [1]) | drug sensitivity score (JHOS2; [2]) | drug sensitivity score (Kuramochi; [1]) | drug sensitivity score (Kuramochi; [2]) | drug sensitivity score (OVSAHO; [1]) | drug sensitivity score (OVSAHO; [2]) |
| --- | --- | --- | --- | --- | --- | --- | --- | --- | --- | --- | --- | --- |
| CC[C@@H]1C(=O)N(C)c2cnc(Nc3ccc(C(=O)N[C@H]4CC[C@H](N5CCN(CC6CC6)CC5)CC4)cc3OC)nc2N1C(C)C [Volasertib] | 3.9 | 7 | 6 | 14.8 | 0.9 | 4.2 | 14.2 | 4.7 | 9.65 | 2.4 | 6.4 | 6.4 |
| COc1cc2c(cc1OC(C)C)[C@H](c1ccc(Cl)cc1)N(c1ccc(N(C)C[C@H]3CC[C@H](N4CCN(C)C(=O)C4)CC3)cc1)C(=O)C2 [NVP-CGM097] | 5.45 | 7.4 | 9.2 | 15.4 | 10.9 | 10 | 5.9 | 6.1 | 5.75 | 8 | 5.2 | 8.5 |
| CC(C)C[C@H](NC(=O)CNC(=O)c1cc(Cl)ccc1Cl)B(O)O [Ixazomib] | 13.6 | 17.1 | 13.8 | 12 | 19.2 | 16.8 | 13.5 | 7.8 | 3.55 | 5 | 5.1 | 2 |
| CCN1C(=O)CNc2ncc(-c3ccc(-c4nc[nH]n4)nc3C)nc21 [CC-115] | 5.8 | 6.6 | 10 | 14 | 9.5 | 17.4 | 6.4 | 7.1 | 6.85 | 7.1 | 10 | 7.1 |
| COc1ccc2[nH]cc(/C=C3\C(=O)Nc4ccc(NC(=O)CCN5CCCCC5)cc43)c2c1 | 6.15 | 11 | 9.7 | 14.3 | 5.8 | 6.7 | 7.8 | 8 | 7.75 | 5.2 | 7.4 | 7.5 |
| O=C(O)c1ccc2c(c1)nc(Nc1cccc(Cl)c1)c1ccncc12 [Silmitasertib] | 3.2 | 4.8 | 1.5 | 6.6 | < 0 | 2.8 | 3.3 | 3.6 | 5.55 | 4.5 | 5.5 | 5.8 |
| COc1ncc(-c2ccc3nccc(-c4ccnnc4)c3c2)cc1NS(=O)(=O)c1ccc(F)cc1F [Omipalisib] | 11.7 | 17.7 | 19.8 | 21.9 | 16.5 | 20 | 9.3 | 10.5 | 17.8 | 10.8 | 17.7 | 17.7 |
| CN(C)CC#Cc1ccc(OCCCc2sc(N3CCc4cccc(C(=O)Nc5nc6ccccc6s5)c4C3)nc2C(=O)O)c(F)c1 | 18.7 | 16.8 | 14.1 | 31.9 | 30.1 | 19.3 | 6.3 | 0.5 | 4.55 | 9.9 | 23.3 | 2.6 |
| CC(=O)Nc1cccc(-n2c(=O)n(C3CC3)c(=O)c3c(Nc4ccc(I)cc4F)n(C)c(=O)c(C)c32)c1 [Trametinib] | 0.75 | 4.8 | 13 | 17.2 | 10.3 | 9 | 1.6 | 12.5 | 8.9 | 4.5 | 10.6 | 7.3 |
| CCn1c(-c2nonc2N)nc2c(C#CC(C)(C)O)ncc(OC[C@H]3CCCNC3)c21 | 7.3 | 1.5 | 7.2 | 8.3 | 5.7 | 11.5 | < 0 | 0.5 | 0.9 | < 0 | < 0 | 4.8 |
| CCc1cncnc1N1CCN(Cc2nc3ccc(C(F)(F)F)cc3[nH]2)CC1 | 1.9 | 0.5 | 3.2 | 2.9 | 8.9 | 4.3 | 0.1 | 0.7 | 2.3 | 0.8 | 1.2 | 2 |
| Cc1nc(Nc2ncc(C(=O)Nc3c(C)cccc3Cl)s2)cc(N2CCN(CCO)CC2)n1 [Dasatinib] | 6.05 | 13.9 | 19 | 17.8 | 10.7 | 3.2 | 8.7 | 10.1 | 17.9 | 9.5 | 14.5 | 15 |
| CNC(=O)c1ccccc1Nc1cc(Nc2ccc(N3CCOCC3)cc2OC)ncc1C(F)(F)F [VS-4718] | 5.4 | 3.8 | 9.2 | 8 | 10.3 | 5.4 | 5.9 | 3.7 | 10.8 | 4.8 | 5.7 | 9.9 |
| C=CC(=O)N1CCC(Oc2cc3c(Nc4ccc(Cl)c(Cl)c4F)ncnc3cc2OC)CC1 [Poziotinib] | 3.5 | 16.4 | 22.9 | 27.2 | 21.2 | 16.1 | < 0 | < 0 | 0.95 | 1.4 | 2.6 | 0.3 |
| COc1ccc(-c2nc(N3CCOCC3)c3sc(CN(C)c4ncc(C(=O)NO)cn4)cc3n2)cn1 [CUDC-907] | 29.9 | 34.3 | 22.7 | 34.5 | 29.9 | 25.9 | 31.3 | 28.1 | 33.1 | 27.7 | 27.8 | 31 |
